Measurements from US10532065B2, “Bisphosphonic acid derivative and application for same” (NAGASAKI UNIVERSITY, priority 2014, dated 2020).
Like-named read-outs stand apart in the source and are kept apart here.

Tests used:
Type in all cases: cell-based
U937 cells = assay: U937 cell growth inhibition (direct antitumor action, CellTiterGlo); conditions: for IC50: U937 cell growth inhibition, 4 days culture; for direct antitumor activity (in words): U937 growth inhibition
Protocol: (§1) The direct antitumor action of bisphosphonic acid POM ester and bisphosphonic acid was studied by comparison using U937.
(§2) The direct antitumor action of various bisphosphonic acid POM esters was studied by comparison using U937 and EJ-1. The measurement was performed according to Experimental Example 2 and Experimental Example 4.

EJ-1 cells = assay: EJ-1 cell growth inhibition (direct antitumor action, CellTiterGlo); conditions: for IC50: EJ-1 (bladder cancer) growth inhibition, 4 days culture; for direct antitumor activity (in words): EJ-1 growth inhibition
Protocol: as §1
(§3) The direct antitumor action of bisphosphonic acid POM ester derivatives and bisphosphonic acids was studied by comparison using EJ-1. It was performed in the same manner as in Experimental Example 1 except that EJ-1 was used as the cell to be used. For recovery of the cells, a conventional EDTA trypsin treatment was performed.
as §3, with “POM esters” for “POM ester derivatives”, “Example 2” for “Example 1”
as §2

EJ-1 cells / γδ T cells = assay: TNF-α production from γδ T cells stimulated by compound-pretreated EJ-1 cells (indirect antitumor action, ELISA); conditions: for EC50: EJ-1 pretreated 4 hr with compound, 16 hr with γδ T cells, TNF-α ELISA, read-out: TNF-α50; for TNF-α production induction activity (in words): EJ-1 pretreated with compound, γδ T cells
Protocol: The indirect antitumor action of bisphosphonic acid POM esters and bisphosphonic acids was studied by comparison using EJ-1. In principle, EJ-1 is treated with a compound, washed, and reacted with γδ T cells, and the cytotoxic ability is studied by comparison, by quantifying TNF-α produced by γδ T cells during cell disordering. TNF-α is generally used as an index of γδ T cell induction ability and/or proliferative capacity, and γδ T cells are considered to be induced and/or proliferated in proportion to the TNF-α amount (Journal of Immunology, 154, 5986-5994 (1995)). Since the produced TNF-α is what is called a tumor necrosis factor, it is considered to have an action to lower proliferation of cancer cells or induce cell death.
Thereto was added a solution (500 μl) of compounds 3, 5, 6, 7, which are bisphosphonic acid POM ester derivatives, obtained by serially diluting 10 mM stock solution 10-fold from 20 μM, or a solution (500 μl) of bisphosphonic acid 10, 12, 13, 14 compound obtained by serially diluting 10-fold from 200 μM, and the cells were suspended well. These conical tubes were stood at 37° C. for 4 hr, and the cells were washed 3 times with 5 ml of culture medium. To these cells was added 500 μl of medium, and the cells were suspended well. […] The cell culture medium was suspended well, and the plate was centrifuged at 1,700 rpm, 4° C. for 2 min and the culture supernatant (150 μl) was taken and placed in another round-bottomed 96 well plate. The plate was frozen at −80° C. overnight, left standing at room temperature for 1 hr, stirred well and 100 μl thereof was subjected to ELISA of TNF-α. The content of TNF-α was calculated from the analytical curve of TNF-α. These were performed in triplicate, and a graph showing bisphosphonic acid POM ester derivative and the corresponding bisphosphonic acid as one pair was plotted. […] The results of bisphosphonic acid POM ester derivative are shown by -●-, and the results of bisphosphonic acid are shown by -◯-.
The indirect antitumor action of bisphosphonic acid POM esters and bisphosphonic acids was quantitatively studied by comparison using EJ-1. […] Thereto was added a solution (500 μl) of a bisphosphonic acid POM ester derivative obtained by serially diluting 10 mM stock solution 10-fold from 20 μM, or a bisphosphonic acid solution (500 μl) serially diluted 10-fold from 200 μM was added, and the cells were suspended well. These conical tubes were stood at 37° C. for 4 hr, and the cells were washed 3 times with 5 ml of culture medium. To these cells was added 500 μl of medium, and the cells were suspended well. […] The cell culture medium was suspended well, and the plate was centrifuged at 1,700 rpm, 4° C. for 2 min and the culture supernatant (150 μl) was taken and placed in another round-bottomed 96 well plate. The plate was frozen at −80° C. overnight, left standing at room temperature for 1 hr, stirred well and 100 μl thereof was subjected to ELISA of TNF-α. The content of TNF-α was calculated from the analytical curve of TNF-α. These were performed in triplicate, and a half of the concentration of compounds 1-7, which are bisphosphonic acid POM ester derivatives, and compounds 8-14, which are bisphosphonic acids, necessary for producing the maximum amount of TNF-α from γδ T cells was calculated as TNF-α50, and summarized in Table 6.
Therefore, the TNF-α50 value of various bisphosphonic acid POM ester derivatives was calculated. […] Thereto was added a solution (500 μl) of compounds 1-7 and 15-39, which are bisphosphonic acid POM ester derivatives, and compound 42, which is other bisphosphonic acid ester derivative, obtained by serially diluting 10 mM stock solution 10-fold from 20 μM, and the cells were suspended well. These conical tubes were stood at 37° C. for 4 hr, and the cells were washed 3 times with 5 ml of culture medium. To these cells was added 500 μl of medium, and the cells were suspended well. […]

SMILES	IC50 (U937 cells)	IC50 (EJ-1 cells)	EC50 (EJ-1 cells / γδ T cells)	IC50 (U937 cells; Homo sapiens, U-937, 96 h)	IC50 (EJ-1 cells; EJ1, 96 h)	EC50 (EJ-1 cells / γδ T cells; EJ1)	direct antitumor activity (in words) (U937 cells)	direct antitumor activity (in words) (EJ-1 cells)	TNF-α production induction activity (in words) (EJ-1 cells / γδ T cells)
CC(=O)OCOP(=O)(OCOC(C)=O)C(CNc1ccccn1)P(=O)(OCOC(C)=O)OCOC(C)=O [Compound 42, tetrakisacetyloxymethyl 2-(pyridin-2-ylamino) ethylidene-1,1-bisphosphonate]				17 µM	16 µM	7.1 µM			
CC(C)(C)C(=O)OCOP(=O)(OCOC(=O)C(C)(C)C)C(CNc1nc(-c2ccccc2)cs1)P(=O)(OCOC(=O)C(C)(C)C)OCOC(=O)C(C)(C)C [Compound 35, tetrakispivaloyloxymethyl 2-(4-phenylthiazol-2-ylamino)ethylidene-1,1-bisphosphonate]	1.1 µM	3.5 µM	> 10 µM				high activity	high activity	
CC(C)(C)C(=O)OCOP(=O)(OCOC(=O)C(C)(C)C)C(CNc1ncccc1-c1ccc(F)cc1)P(=O)(OCOC(=O)C(C)(C)C)OCOC(=O)C(C)(C)C [Compound 26, tetrakispivaloyloxymethyl 2-[3-(4-fluorophenyl)pyridin-2-ylamino]ethylidene-1,1-bisphosphonate]	7 µM	8.7 µM	> 10 µM						
Cc1cccnc1NCC(P(=O)(O)O)P(=O)(O)O [Compound 8, 2-(3-methylpyridin-2-ylamino)ethylidene-1,1-bisphosphonic Acid, reference compound]				980 µM	13 µM	> 100 µM			
Cc1ccc(NCC(P(=O)(O)O)P(=O)(O)O)nc1 [Compound 10, 2-(methylpyridin-2-ylamino)ethylidene-1,1-bisphosphonic Acid, reference compound]				29 µM	7.9 µM	48 µM			
CC(C)(C)C(=O)OCOP(=O)(OCOC(=O)C(C)(C)C)C(CNc1ccc2ccccc2n1)P(=O)(OCOC(=O)C(C)(C)C)OCOC(=O)C(C)(C)C [Compound 30, tetrakispivaloyloxymethyl 2-(quinolin-2-ylamino)ethylidene-1,1-bisphosphonate]	6.6 µM	10 µM	> 10 µM						
Cc1cccc(NCC(P(=O)(OCOC(=O)C(C)(C)C)OCOC(=O)C(C)(C)C)P(=O)(OCOC(=O)C(C)(C)C)OCOC(=O)C(C)(C)C)n1 [Compound 20, tetrakispivaloyloxymethyl 2-(6-methylpyridin-2-ylamino)ethylidene-1,1-bisphosphonate]	6.9 µM	16 µM	3.7 µM						
COc1ccc(-c2cccnc2NCC(P(=O)(OCOC(=O)C(C)(C)C)OCOC(=O)C(C)(C)C)P(=O)(OCOC(=O)C(C)(C)C)OCOC(=O)C(C)(C)C)cc1 [Compound 25, tetrakispivaloyloxymethyl 2-[3-(4-methoxyphenyl)pyridin-2-ylamino]ethylidene-1,1-bisphosphonate]	6.2 µM	8.8 µM	> 10 µM						
O=P(O)(O)C(CNc1ncccc1Br)P(=O)(O)O [Compound 9, 2-(3-bromopyridin-2-ylamino)ethylidene-1,1-bisphosphonic Acid, reference compound]				1100 µM	970 µM	> 100 µM			
CCCCCCCCc1cccc(NCC(P(=O)(OCOC(=O)C(C)(C)C)OCOC(=O)C(C)(C)C)P(=O)(OCOC(=O)C(C)(C)C)OCOC(=O)C(C)(C)C)n1 [Compound 24, tetrakispivaloyloxymethyl 2-(6-octanylpyridin-2-ylamino)ethylidene-1,1-bisphosphonate]	3 µM	6.3 µM	> 10 µM						

The next lines start with results.

IC50 (U937 cells)	IC50 (EJ-1 cells)	EC50 (EJ-1 cells / γδ T cells)	IC50 (U937 cells; Homo sapiens, U-937, 96 h)	IC50 (EJ-1 cells; EJ1, 96 h)	EC50 (EJ-1 cells / γδ T cells; EJ1)	SMILES	direct antitumor activity (in words) (U937 cells)	direct antitumor activity (in words) (EJ-1 cells)	TNF-α production induction activity (in words) (EJ-1 cells / γδ T cells)
5 µM	4.2 µM	3.6 µM				Cc1csc(NCC(P(=O)(OCOC(=O)C(C)(C)C)OCOC(=O)C(C)(C)C)P(=O)(OCOC(=O)C(C)(C)C)OCOC(=O)C(C)(C)C)n1 [Compound 33, tetrakispivaloyloxymethyl 2-(4-methylthiazol-2-ylamino)ethylidene-1,1-bisphosphonate]			
6.1 µM	9 µM	> 10 µM				CC(C)(C)C(=O)OCOP(=O)(OCOC(=O)C(C)(C)C)C(CNc1cccc(Br)n1)P(=O)(OCOC(=O)C(C)(C)C)OCOC(=O)C(C)(C)C [Compound 21, tetrakispivaloyloxymethyl 2-(6-bromopyridin-2-ylamino)ethylidene-1,1-bisphosphonate]			
7.1 µM	6 µM	6.5 µM				CC(C)(C)C(=O)OCOP(=O)(OCOC(=O)C(C)(C)C)C(CNc1cc(Br)ccn1)P(=O)(OCOC(=O)C(C)(C)C)OCOC(=O)C(C)(C)C [Compound 28, tetrakispivaloyloxymethyl 2-(4-bromopyridin-2-ylamino)ethylidene-1,1-bisphosphonate]			
2.5 µM	1.1 µM	0.063 µM				Cc1cnc(NCC(P(=O)(OCOC(=O)C(C)(C)C)OCOC(=O)C(C)(C)C)P(=O)(OCOC(=O)C(C)(C)C)OCOC(=O)C(C)(C)C)s1 [Compound 34, tetrakispivaloyloxymethyl 2-(5-methylthiazol-2-ylamino)ethylidene-1,1-bisphosphonate]	high activity	high activity	high activity
6.6 µM	12 µM	> 10 µM				CC(C)(C)C(=O)OCOP(=O)(OCOC(=O)C(C)(C)C)C(CNc1ccnc(Br)c1)P(=O)(OCOC(=O)C(C)(C)C)OCOC(=O)C(C)(C)C [Compound 29, tetrakispivaloyloxymethyl 2-(2-bromopyridin-4-ylamino)ethylidene-1,1-bisphosphonate]			
2.6 µM	4.3 µM	> 10 µM				CC(C)(C)C(=O)OCOP(=O)(OCOC(=O)C(C)(C)C)C(CNc1ccc(C(F)(F)F)cn1)P(=O)(OCOC(=O)C(C)(C)C)OCOC(=O)C(C)(C)C [Compound 17, tetrakispivaloyloxymethyl 2-(5-trifluoromethylpyridin-2-ylamino)ethylidene-1,1-bisphosphonate]			
0.65 µM	0.059 µM	0.062 µM				CC(C)(C)C(=O)OCOP(=O)(OCOC(=O)C(C)(C)C)C(CNc1ccncn1)P(=O)(OCOC(=O)C(C)(C)C)OCOC(=O)C(C)(C)C [Compound 39, tetrakispivaloyloxymethyl 2-(pyrimidin-4-ylamino)ethylidene-1,1-bisphosphonate]	particularly high activity	particularly high activity	high activity
